{"source": "patent EP4692082A1", "about": "“CRYSTAL FORM OF 2,6-PIPERIDINEDIONE COMPOUND, AND PREPARATION METHOD THEREFOR AND USE THEREOF” (Zhangzhou Pien Tze Huang Pharmaceutical Co., Ltd., priority 2023, dated 2024)", "key": {"[1]": {"molecular_target": "T1, IRAK4 (Homo sapiens, UniProt Q9NWZ3)", "T1 construct": "expressed in transfected cells; host or cells: K562 IRAK4-HiBiT cells", "T1 sequence (Q9NWZ3 1-460)": "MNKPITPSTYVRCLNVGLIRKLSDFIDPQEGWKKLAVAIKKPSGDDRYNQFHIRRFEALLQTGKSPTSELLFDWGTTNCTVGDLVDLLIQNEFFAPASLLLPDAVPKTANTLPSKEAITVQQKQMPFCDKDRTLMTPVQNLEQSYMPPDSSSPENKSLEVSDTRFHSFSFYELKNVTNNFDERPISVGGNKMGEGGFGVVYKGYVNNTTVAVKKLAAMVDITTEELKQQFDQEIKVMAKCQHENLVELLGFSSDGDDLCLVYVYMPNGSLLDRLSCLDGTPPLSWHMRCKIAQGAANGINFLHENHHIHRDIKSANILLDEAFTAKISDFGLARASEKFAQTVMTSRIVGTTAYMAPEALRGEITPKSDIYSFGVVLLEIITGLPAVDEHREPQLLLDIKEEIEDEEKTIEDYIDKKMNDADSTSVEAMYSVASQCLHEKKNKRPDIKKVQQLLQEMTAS", "experiment": "Target protein degradation in K562 IRAK4-HiBiT cells (Nano-Glo HiBiT)", "assay_type": "cell-based", "experimental": "• Cells: K562 IRAK4-HiBiT cells • Culture medium: RPMI 1640 + 10% fetal bovine serum + 2 mM glutamine + 1 mM sodium pyruvate + penicillin/streptomycin • Positive control: 1000 nM; negative control: 0.1% DMSO Table 6. Reagents and consumables […]\n• (1) The cell culture medium was discarded, and the cells were washed once with DPBS, digested with trypsin, and counted to prepare a cell suspension of […]. • (2) 25 µL/well of cell suspension was added to the assay plate containing the test compound using Multidrop Combi at medium speed. • (3) The assay plate containing cells was returned to an incubator with 5% CO2 at 37°C and incubated for 16 to 18 hours.\n• (1) 25 µL/well of assay reagent (NanoGlo lysis buffer + substrate + LgBit protein) was added to the assay plate using Multidrop Combi at high speed, and the plate was shaken for 10 minutes. • (2) The plate was centrifuged at 2000 rpm for 1 minute to remove air bubbles. • (3) The plate was read on Envision using US Luminescence detection method.\nThe degradation rate (DR) of the test compound was calculated using the following formula: DR (%) = (RLU vehicle control - RLU compound)/(RLU vehicle control - RLU positive control)*100%, where the vehicle control served as the blank control. […]"}, "[2]": {"experiment": "Pharmacokinetic evaluation in mice", "assay_type": "in vivo, C57BL/6 or C57 mice", "excerpt": "C57BL/6 or C57 male mice were selected as the test animals for this study. The LC/MS/MS method was employed to quantitatively determine the plasma drug concentrations at various time points after intravenous injection or intragastric administration of the test compound, aiming to evaluate the pharmacokinetic characteristics of the compound of the present disclosure in mice.\nC57BL/6 or C57 mice (male, 20 to 30g, 7 to 10 weeks old, Beijing Vital River).\nA clear solution of the test compound was injected intravenously into the tail vein of C57BL/6 mice (fasted overnight) (vehicle: 10% DMSO/10% solutol/80% H2O), or administered intragastrically to C57 mice (fed). […] The mixture was thoroughly vortexed and mixed, and centrifuged at 6000 g for 3 minutes at 2 to 8°C. […] The mixture was thoroughly vortexed and mixed, and centrifuged at 6000 g for 3 minutes at 2 to 8°C. Plasma drug concentrations were determined by the LC-MS/MS method, and relevant pharmacokinetic parameters were calculated using Phoenix WinNonlin 8.2.0 pharmacokinetic software with non-compartmental model linear-log trapezoidal method. Table 20. Pharmacokinetic parameters of the compound of the present disclosure in mice"}, "[3]": {"experiment": "Pharmacokinetic evaluation in beagle dogs", "assay_type": "in vivo", "conditions": "Beagle dogs (fed)", "excerpt": "Male beagle dogs were selected as the experimental animals in this study. The LC/MS/MS method was employed to quantitatively determine the plasma drug concentrations at different time points after intravenous injection or intragastric administration of the test compound, aiming to evaluate the pharmacokinetic characteristics of the compound of the present disclosure in beagle dogs.\nBeagle dogs (male, 7 to 10 kg, Beijing Mars Biotechnology Co., Ltd.).\nA solution of the test compound was slowly injected intravenously into beagle dogs (fed) via the peripheral vein (vehicle: 5% DMSO/10% Solutol/85% H2O), or administered intragastrically to beagle dogs (fed). For intravenous administration, 0.5 mL of blood was collected from the peripheral vein at 0.083, 0.25, 0.5, 1, 2, 4, 6, 8, and 24 h after administration, placed in EDTA-2K anticoagulant tubes, and centrifuged at 3200 g for 10 minutes at 2 to 8°C to separate the supernatant. For intragastric administration, 0.5 mL of blood was collected from the peripheral vein at 0.083, 0.25, 0.5, 1, 2, 4, 6, 8, and 24 h after administration, placed in EDTA-2K anticoagulant tubes, and centrifuged at 3200 g for 10 minutes at 2 to 8°C to separate the supernatant. Plasma drug concentrations were determined by the LC-MS/MS method, and relevant pharmacokinetic parameters were calculated using Phoenix WinNonlin 6.3 or 8.3.5 pharmacokinetic software with non-compartmental model linear-log trapezoidal method."}, "[4]": {"molecular_target": "IKZF1 (Homo sapiens, UniProt Q13422+Q96SW2)", "sequence (Q13422 whole entry)": "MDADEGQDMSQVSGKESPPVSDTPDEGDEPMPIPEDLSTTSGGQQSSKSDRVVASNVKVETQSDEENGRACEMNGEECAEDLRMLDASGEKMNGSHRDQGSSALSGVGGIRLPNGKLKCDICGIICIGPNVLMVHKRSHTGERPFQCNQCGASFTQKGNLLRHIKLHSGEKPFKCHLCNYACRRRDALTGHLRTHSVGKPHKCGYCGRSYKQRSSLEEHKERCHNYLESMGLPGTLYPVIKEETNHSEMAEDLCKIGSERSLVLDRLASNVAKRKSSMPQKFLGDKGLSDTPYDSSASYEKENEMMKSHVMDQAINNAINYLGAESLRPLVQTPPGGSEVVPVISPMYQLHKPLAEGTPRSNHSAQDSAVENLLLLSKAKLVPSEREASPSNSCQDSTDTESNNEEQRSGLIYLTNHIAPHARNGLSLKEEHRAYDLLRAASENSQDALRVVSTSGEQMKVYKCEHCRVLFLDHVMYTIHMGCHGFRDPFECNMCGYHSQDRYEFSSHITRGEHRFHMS", "sequence (Q96SW2 whole entry)": "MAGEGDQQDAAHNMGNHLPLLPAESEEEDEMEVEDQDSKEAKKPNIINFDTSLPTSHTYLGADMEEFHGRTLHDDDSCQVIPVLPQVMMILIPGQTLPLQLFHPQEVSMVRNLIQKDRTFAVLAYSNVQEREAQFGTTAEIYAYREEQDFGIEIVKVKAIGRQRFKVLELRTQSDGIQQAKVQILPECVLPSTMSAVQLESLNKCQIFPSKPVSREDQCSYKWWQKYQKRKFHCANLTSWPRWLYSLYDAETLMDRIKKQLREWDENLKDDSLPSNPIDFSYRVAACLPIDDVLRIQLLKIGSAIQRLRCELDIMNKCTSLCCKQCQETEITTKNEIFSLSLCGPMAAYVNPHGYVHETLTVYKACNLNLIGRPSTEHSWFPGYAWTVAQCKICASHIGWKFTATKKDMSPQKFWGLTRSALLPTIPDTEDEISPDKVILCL", "sequence (Q16531 whole entry partner)": "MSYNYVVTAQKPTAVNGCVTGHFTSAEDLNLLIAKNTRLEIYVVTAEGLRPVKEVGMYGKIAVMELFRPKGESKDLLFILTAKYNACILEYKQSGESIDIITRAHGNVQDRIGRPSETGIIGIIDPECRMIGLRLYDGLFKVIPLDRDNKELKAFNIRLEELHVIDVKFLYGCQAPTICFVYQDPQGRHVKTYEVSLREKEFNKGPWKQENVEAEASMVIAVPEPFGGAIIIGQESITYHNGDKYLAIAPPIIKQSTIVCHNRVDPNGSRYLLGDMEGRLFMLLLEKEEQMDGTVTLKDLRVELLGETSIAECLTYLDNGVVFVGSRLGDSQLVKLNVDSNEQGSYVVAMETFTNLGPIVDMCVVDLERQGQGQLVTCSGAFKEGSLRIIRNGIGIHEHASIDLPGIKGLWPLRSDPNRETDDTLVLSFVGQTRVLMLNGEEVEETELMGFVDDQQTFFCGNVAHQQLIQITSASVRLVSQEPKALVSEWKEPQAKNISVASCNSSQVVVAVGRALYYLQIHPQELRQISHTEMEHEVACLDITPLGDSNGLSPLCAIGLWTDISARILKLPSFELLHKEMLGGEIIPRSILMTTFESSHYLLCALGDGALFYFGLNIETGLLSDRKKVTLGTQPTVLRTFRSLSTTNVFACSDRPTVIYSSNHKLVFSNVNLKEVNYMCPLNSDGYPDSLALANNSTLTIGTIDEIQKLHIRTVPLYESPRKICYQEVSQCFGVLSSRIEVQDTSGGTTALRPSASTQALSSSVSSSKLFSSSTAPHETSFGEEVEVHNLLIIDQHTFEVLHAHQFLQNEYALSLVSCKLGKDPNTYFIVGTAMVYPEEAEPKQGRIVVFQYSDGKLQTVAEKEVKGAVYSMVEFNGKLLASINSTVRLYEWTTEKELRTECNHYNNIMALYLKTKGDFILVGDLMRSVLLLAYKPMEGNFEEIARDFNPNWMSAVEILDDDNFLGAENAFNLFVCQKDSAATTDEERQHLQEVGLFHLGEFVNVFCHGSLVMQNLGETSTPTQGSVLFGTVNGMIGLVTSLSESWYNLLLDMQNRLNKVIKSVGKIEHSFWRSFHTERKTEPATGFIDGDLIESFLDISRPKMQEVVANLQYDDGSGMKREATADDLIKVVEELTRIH", "experiment": "In cell western analysis of IKZF1 protein expression level in MM.1S cells", "description": "(§1) • 1) MM.1S cells in the logarithmic growth phase were seeded into a 96-well plate at 1.2x10^5 cells per well and cultured overnight. • 2) On the second day, drug treatment was initiated with a starting concentration of 300 nM, followed by a 3-fold dilution in triplicate wells, with 10 concentration gradients (containing DMSO), and incubated for 24 hours in a culture incubator. • 3) The mixture was centrifuged, and the cell supernatant was carefully removed. […] The mixture was incubated at room temperature on a shaker for 5 min. • 12) The washing step was repeated 4 times. • 13) The secondary antibody diluent was prepared by adding Tween 20 to the Licor [sequence] blocking buffer at a final concentration of 0.2%. • 14) The fluorescent secondary antibody was diluted in the dark (1:800 dilution). To 400 µL of the secondary antibody diluent, 0.5 µLeach of IRDye 800CW and IRDye 680CW was added (the corresponding fluorescent secondary antibody for the primary antibody). • 15) 50 µL of the diluted fluorescent secondary antibody was added to each well, followed by incubation at room temperature on a shaker in the dark for 60 min. • 16) The secondary antibody was removed, and 200 µL of PBST was added along the well wall without touching the bottom cells. […]\n(§2) GraphPad Prism 6 software was utilized to fit the curve with the inhibition rate data, and the DC50 value was calculated."}, "[5]": {"molecular_target": "IKZF3 (Homo sapiens, UniProt Q96SW2+Q9UKT9)", "sequence (Q9UKT9 whole entry)": "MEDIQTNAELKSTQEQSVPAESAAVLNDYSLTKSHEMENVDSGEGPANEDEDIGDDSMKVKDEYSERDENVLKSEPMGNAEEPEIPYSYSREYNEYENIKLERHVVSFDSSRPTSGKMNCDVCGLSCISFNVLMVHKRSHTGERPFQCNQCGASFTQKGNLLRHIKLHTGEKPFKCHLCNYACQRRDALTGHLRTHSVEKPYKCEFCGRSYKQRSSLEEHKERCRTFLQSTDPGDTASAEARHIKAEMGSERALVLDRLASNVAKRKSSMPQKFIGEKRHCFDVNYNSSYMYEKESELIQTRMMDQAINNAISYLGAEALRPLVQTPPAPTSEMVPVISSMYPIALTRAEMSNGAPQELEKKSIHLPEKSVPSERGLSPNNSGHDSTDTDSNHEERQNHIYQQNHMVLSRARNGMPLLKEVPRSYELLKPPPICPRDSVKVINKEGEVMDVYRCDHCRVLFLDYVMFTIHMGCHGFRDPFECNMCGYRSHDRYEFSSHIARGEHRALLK", "sequence (Q96SW2 whole entry)": "as the sequence (Q96SW2 whole entry) above", "sequence (Q16531 whole entry partner)": "as the sequence (Q16531 whole entry partner) above", "experiment": "In cell western analysis of IKZF3 protein expression level in MM.1S cells", "description": "as §1, §2"}, "[6]": {"conditions": "Intragastric administration (10 mg/kg) (fed)"}, "[7]": {"conditions": "Intragastric Administration, 5 mg/kg"}, "[8]": {"conditions": "Intragastric Administration, 15 mg/kg"}, "[9]": {"conditions": "Intravenous Injection (0.5 mg/kg)"}, "[10]": {"conditions": "MM1.S, read-out: Maximum Degradation Rate Dmax"}}, "note": "Counter-ions that a name gives are not always drawn."}
{"smiles": "O=C1CCC(c2noc3ccc4c(NC(=O)CN5CCN(C[C@H]6CC[C@H](n7cc(NC(=O)c8coc(-c9ccnc(NCC%10CC%10)c9)n8)c(C(F)F)n7)CC6)CC5)cccc4c23)C(=O)N1", "note": "(relative stereo) [Hydrochloride of Compound of Formula (I)]", "values": [{"measurement": "Dmax", "setting": "[1]; K562, read-out: Maximum Degradation Rate", "result": 108, "unit": "%"}, {"measurement": "DC50", "setting": "[1]; K562 IRAK4-HiBiT cells, incubated 16 to 18 hours", "result": 4.87, "unit": "nM"}, {"measurement": "Area Under the Drug-Time Curve (0-inf)", "setting": "[2]; [6]", "result": 4.47, "unit": "µM·h"}, {"measurement": "Peak Concentration", "setting": "[2]; [6]", "result": 0.54, "unit": "µM"}, {"measurement": "Time to Peak Concentration", "setting": "[2]; [6]", "result": 1.00, "unit": "h"}, {"measurement": "Area Under the Drug-Time Curve (0-inf)", "setting": "[2]; Intravenous Injection (2 mg/kg) (fasted)", "result": 5.40, "unit": "µM·h"}, {"measurement": "Area Under the Drug-Time Curve (0-inf)", "setting": "[3]; [7]", "result": 3.20, "unit": "µM·h"}, {"measurement": "Peak Concentration", "setting": "[3]; [7]", "result": 0.41, "unit": "µM"}, {"measurement": "Time to Peak Concentration", "setting": "[3]; [7]", "result": 4.00, "unit": "h"}, {"measurement": "Area Under the Drug-Time Curve (0-inf)", "setting": "[3]; [8]", "result": 8.02, "unit": "µM·h"}, {"measurement": "Peak Concentration", "setting": "[3]; [8]", "result": 0.87, "unit": "µM"}, {"measurement": "Time to Peak Concentration", "setting": "[3]; [8]", "result": 4.00, "unit": "h"}, {"measurement": "Apparent Distribution Volume", "setting": "[3]; [9]", "result": 5.83, "unit": "L/kg"}, {"measurement": "Area Under the Drug-Time Curve (0-inf)", "setting": "[3]; [9]", "result": 0.44, "unit": "µM·h"}, {"measurement": "DC50", "setting": "[4]; IKZF1, MM.1S cells, 24 hours", "result": 23.4, "unit": "nM"}, {"measurement": "Dmax", "setting": "[4]; [10]", "result": 72.3, "unit": "%"}, {"measurement": "DC50", "setting": "[5]; IKZF3, MM.1S cells, 24 hours", "result": 20.6, "unit": "nM"}, {"measurement": "Dmax", "setting": "[5]; [10]", "result": 73.5, "unit": "%"}]}
